The source of these data is US10076522B2, “Systems and methods for treating bacterial infection” (priority 2016, dated 2018).

SMILES strings stand for the structures. pIC50: −log10 of the molar value. Entries after “also recorded” stand apart in the source; their conditions may differ. Some results are limits rather than exact numbers.

One data set relates to cSSSIs. As to the kind of experiment: Phase III ASSIST trials, efficacy in cSSSI. The format is in vivo, human. Conditions: 0.8 mg/kg over 0.5 hr q12h IV. From the text:
Without wishing to be bound by a particular theory, one observed disadvantage of the weight-based dosing in the previous Phase III studies is that the post-antibiotic effect achieved by the weight-based doses was not enough to sustain the T>MIC between doses. Sufficient efficacy might be achieved by increasing the amount of iclaprim administered to the subject. However, as discussed above, simply increasing the weight-based dose of iclaprim risks causing QTc prolongation.

The conditions of data set [1]: human, in vivo.
In data set [2] the target is T1, hERG-mediated potassium current (Homo sapiens, UniProt Q12809).
T1 construct: expressed in transfected cells; host or cells: CHO (Chinese Hamster Ovary) cells
The data set is described as follows: Inhibition of hERG-mediated potassium current in transfected CHO cells. Conditions: reversible inhibition. Type of data set: cell-based.

Data set [3] is described as follows: Single-dose ECG study in healthy human volunteers (1.6 and 3.2 mg/kg over 30 minutes). Type of data set: in vivo. The protocol:
Based on this, a single-dose ECG-study was conducted in healthy human volunteers, where 1.6 mg/kg and 3.2 mg/kg iclaprim was infused over 30 minutes. […] Maximal increases coincided with Cmax levels and were rapidly reversible. Weight-based dosing with 1.6 mg/kg was thus assessed as acceptable for clinical purposes, whereas weight-based dosing at 3.2 mg/kg was associated with relevant QTc prolongations (>60 msec) and nonspecific T-wave alterations, and was not used for further clinical studies.

A short description of another data set: clinical. Conditions: human, in vivo, 1 mg/kg.

T1 sequence (Q12809 whole entry): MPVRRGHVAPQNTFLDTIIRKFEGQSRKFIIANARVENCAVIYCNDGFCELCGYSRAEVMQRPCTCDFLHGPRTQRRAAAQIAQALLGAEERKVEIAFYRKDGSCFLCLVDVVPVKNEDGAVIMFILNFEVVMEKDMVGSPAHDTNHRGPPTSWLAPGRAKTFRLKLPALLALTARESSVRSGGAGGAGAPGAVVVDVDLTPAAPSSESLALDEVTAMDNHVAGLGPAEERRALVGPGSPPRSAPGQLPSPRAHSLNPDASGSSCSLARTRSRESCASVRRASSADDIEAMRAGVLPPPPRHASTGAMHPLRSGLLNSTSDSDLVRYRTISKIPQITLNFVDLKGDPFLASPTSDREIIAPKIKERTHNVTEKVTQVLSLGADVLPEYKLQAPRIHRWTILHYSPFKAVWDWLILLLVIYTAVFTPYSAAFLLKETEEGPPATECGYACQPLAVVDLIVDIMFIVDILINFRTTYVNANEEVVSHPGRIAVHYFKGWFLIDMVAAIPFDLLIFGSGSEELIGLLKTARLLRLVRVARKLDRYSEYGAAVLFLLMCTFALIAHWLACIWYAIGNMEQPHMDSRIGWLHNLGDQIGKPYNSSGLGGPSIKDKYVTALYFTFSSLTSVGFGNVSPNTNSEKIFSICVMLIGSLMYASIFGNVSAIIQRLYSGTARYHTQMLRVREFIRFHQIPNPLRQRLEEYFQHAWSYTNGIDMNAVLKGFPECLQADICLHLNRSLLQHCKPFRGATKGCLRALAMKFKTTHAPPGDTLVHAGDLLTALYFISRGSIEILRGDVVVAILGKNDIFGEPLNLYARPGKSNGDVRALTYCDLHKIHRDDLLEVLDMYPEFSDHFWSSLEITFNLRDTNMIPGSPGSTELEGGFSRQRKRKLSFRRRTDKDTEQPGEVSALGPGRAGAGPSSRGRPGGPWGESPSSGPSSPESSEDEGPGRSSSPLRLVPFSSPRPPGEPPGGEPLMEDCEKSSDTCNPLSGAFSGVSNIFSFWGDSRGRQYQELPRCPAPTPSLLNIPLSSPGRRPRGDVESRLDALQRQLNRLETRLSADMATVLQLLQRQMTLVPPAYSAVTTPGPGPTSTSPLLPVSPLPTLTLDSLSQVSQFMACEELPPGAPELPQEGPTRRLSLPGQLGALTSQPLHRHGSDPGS

Consider `COc1cc(Cc2cnc(N)nc2N)c2c(c1OC)OC(C1CC1)C=C2` (racemic) [Iclaprim], for which the “efficacy, non-inferiority (−10% margin) to linezolid” value in the data set with cSSSIs was “did not meet the FDA criteria of non-inferiority to linezolid; also recorded: failed to show efficacy”. The “adverse events related to QTc prolongation” value in data set [1] is 4 cases. In addition, the pIC50 in data set [2] was 6.05. Further, in data set [3] (3.2 mg/kg infused over 30 minutes), the QTc prolongations is > 60 ms. For the same compound, the “effect on QTc interval” value in data set [3] (1.6 and 3.2 mg/kg infused over 30 minutes, dose-dependent) is reported as “prolonged the QTc interval”. This compound also came in with a Cmax in the data set “clinical” of 792 ng/mL.
